In patent publication US8557796B2, “Substituted 1-oxa-2,8-diaza-spiro [4,5] dec-2-ene derivatives and related treatment methods” (Gruenenthal GmbH, priority 2001, dated 2013):

Biological target: T1, NA transporter (Rattus norvegicus, UniProt Q9WTR4)
T1 construct: synaptosomes from rat brain regions were freshly isolated; from tissue; host or cells: P2 synaptosome fraction from hypothalamus of male rat brain
Assay: Noradrenalin uptake inhibition (NA-uptake) in synaptosomes
Format: biochemical
Details: rat hypothalamus synaptosomes
Source text: Tests on Noradrenalin Uptake Inhibition (NA-Uptake Inhibition)
In order to be able to carry out these in vitro studies, synaptosomes from rat brain regions were freshly isolated.

T1 sequence (Q9WTR4 1-597): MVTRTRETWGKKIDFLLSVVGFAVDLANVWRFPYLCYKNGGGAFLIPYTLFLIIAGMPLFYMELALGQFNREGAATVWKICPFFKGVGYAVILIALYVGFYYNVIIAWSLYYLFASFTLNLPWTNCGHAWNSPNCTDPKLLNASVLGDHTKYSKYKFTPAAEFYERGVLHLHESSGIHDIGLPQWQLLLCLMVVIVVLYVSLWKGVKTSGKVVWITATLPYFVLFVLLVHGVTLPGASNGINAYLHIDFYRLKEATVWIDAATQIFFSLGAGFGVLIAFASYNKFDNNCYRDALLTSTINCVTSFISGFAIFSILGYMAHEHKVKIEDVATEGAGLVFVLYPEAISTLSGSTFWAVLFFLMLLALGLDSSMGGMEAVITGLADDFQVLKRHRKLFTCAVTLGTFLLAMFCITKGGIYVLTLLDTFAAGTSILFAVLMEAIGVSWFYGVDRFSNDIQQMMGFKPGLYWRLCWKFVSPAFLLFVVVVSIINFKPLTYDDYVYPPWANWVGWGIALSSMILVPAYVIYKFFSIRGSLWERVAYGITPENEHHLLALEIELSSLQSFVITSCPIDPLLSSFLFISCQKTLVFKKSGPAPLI

Compound | NA-uptake, 10 μM, % inhibition | inhibition at 10 µM
O=C(C1=NOC2(CCN(S(=O)(=O)c3ccc(F)cc3)CC2)C1)N1CCN(C2CCCCCC2)CC1 [Example 218] | 44% | –
Cc1onc(-c2c(Cl)cccc2Cl)c1C(=O)N1CCC2(CC1)CC(C(=O)NCc1cccs1)=NO2 [Example 197, 8-[3-(2,6-dichloro-phenyl)-5-methyl-isoxazole-4-carbonyl]-1-oxa-2,8-diaza-spiro[4,5]dec-2-ene-3-carboxylic acid (thiophen-2-ylmethyl)-amide] | – | 41%
O=C(NCC1CC1)C1=NOC2(CCN(C(=O)c3ccc(OC(F)(F)F)cc3)CC2)C1 [Example 117, 8-(4-trifluoromethoxy-benzoyl)-1-oxa-2,8-diaza-spiro[4,5]dec-2-ene-3-carboxylic acid cyclopropylmethyl-amide] | – | 46%
COC(=O)C(Cc1ccc(Cl)cc1)NC(=O)C1=NOC2(CCN(S(=O)(=O)c3ccc(OC)cc3)CC2)C1 (centres unmarked) [Example 200] | 43% | –
O=C(NCc1ccccc1)C1=NOC2(CCN(C(=O)c3ccc(Br)cc3)CC2)C1 [Example 212, 8-(4-bromo-benzoyl)-1-oxa-2,8-diaza-spiro[4,5]dec-2-ene-3-carboxylic acid benzylamide] | – | 55%
CCOC(=O)C1CCCCN1C(=O)C1=NOC2(CCN(C(=O)c3ccc(C(C)(C)C)cc3)CC2)C1 (centres unmarked) [Example 195, 1-[8-(4-tert-butyl-benzoyl)-1-oxa-2,8-diaza-spiro[4,5]dec-2-ene-3-carbonyl]-piperidine-2-carboxylic acid ethyl ester] | – | 41%
CC(C)CC(NC(=O)C1=NOC2(CCN(S(=O)(=O)c3cccc(C(F)(F)F)c3)CC2)C1)C(=O)OC(C)(C)C (centres unmarked) [Example 214, 4-methyl-2-{[8-(3-trifluoromethyl-benzenesulphonyl)-1-oxa-2,8-diaza-spiro[4,5]dec-2-ene-3-carbonyl]-amino}-pentanoic acid tert-butyl ester] | – | 45%
CN(C)S(=O)(=O)N1CCC2(CC1)CC(C(=O)NCCc1ccccc1)=NO2 [Example 7, 8-dimethylsulphamoyl-1-oxa-2,8-diaza-spiro[4,5]dec-2-ene-3-carboxylic acid phenethyl-amide] | – | 50%
O=C(C1=NOC2(CCN(S(=O)(=O)c3cccc(C(F)(F)F)c3)CC2)C1)N1CCN(c2cc(C(F)(F)F)ccn2)CC1 [Example 119] | 43% | –
O=C(C1=NOC2(CCN(S(=O)(=O)Cc3ccccc3)CC2)C1)N1CCN(c2ccccn2)CC1 [Example 134, (8-phenylmethanesulphonyl-1-oxa-2,8-diaza-spiro[4,5]dec-2-en-3-yl)-(4-pyridin-2-yl-piperazin-1-yl)-methanone] | – | 51%
O=C(NCc1ccncc1)C1=NOC2(CCN(C(=O)c3ccc(OC(F)(F)F)cc3)CC2)C1 [Example 187, 8-(4-trifluoromethoxy-benzoyl)-1-oxa-2,8-diaza-spiro[4,5]dec-2-ene-3-carboxylic acid (pyridin-4-ylmethyl)-amide] | – | 44%
COC(=O)CCC(=O)N1CCC2(CC1)CC(C(=O)NCc1cccs1)=NO2 [Example 114, 4-oxo-4-{3-[(thiophen-2-ylmethyl)-carbamoyl]-1-oxa-2,8-diaza-spiro[4,5]dec-2-ene-8-yl}-butyric acid methyl ester] | – | 42%
O=C(NCC1CC1)C1=NOC2(CCN(C(=O)c3ccc(C(F)(F)F)c(F)c3)CC2)C1 [Example 110, 8-(3-fluoro-4-trifluoromethyl-benzoyl)-1-oxa-2,8-diaza-spiro[4,5]dec-2-ene-3-carboxylic acid cyclopropylmethyl-amide] | – | 45%
O=C(NC1CCCC1OCc1ccccc1)C1=NOC2(CCN(S(=O)(=O)c3cccs3)CC2)C1 (centres unmarked) [Example 47, 8-(thiophene-2-sulphonyl)-1-oxa-2,8-diaza-spiro[4,5]dec-2-ene-3-carboxylic acid (2-benzyloxy-cyclopentyl)-amide] | – | 92%
O=C(NCCN1CCCC1)C1=NOC2(CCN(S(=O)(=O)c3ccc(F)c(Cl)c3)CC2)C1 [Example 11] | 41% | –
Cc1ccccc1N1CCN(C(=O)C2=NOC3(CCN(S(=O)(=O)Cc4ccccc4)CC3)C2)CC1 [Example 133, (8-phenylmethanesulphonyl-1-oxa-2,8-diaza-spiro[4,5]dec-2-en-3-yl)-(4-o-tolyl-piperazin-l-yl)-methanone] | 48% | –
O=C(C1=NOC2(CCN(S(=O)(=O)c3ccc(OC(F)(F)F)cc3)CC2)C1)N1CCN(CCCc2ccccc2)CC1 [Example 176, [4-(3-phenyl-propyl)-piperazin-l-yl]-[8-(4-trifluoromethoxy-benzenesulphonyl)-1-oxa-2,8-diaza-spiro [4,5]dec-2-en-3-yl]-methanone] | 52% | –
O=C(NCc1cccs1)C1=NOC2(CCN(C(=O)c3ccc(Br)cc3)CC2)C1 [Example 141] | 61% | –

Compound | NA-uptake, 10 μM, % inhibition | inhibition at 10 µM
O=C(NCCc1ccccc1)C1=NOC2(CCN(S(=O)(=O)Cc3ccccc3)CC2)C1 [Example 12, 8-phenylmethanesulphonyl-1-oxa-2,8-diaza-spiro[4,5]dec-2-ene-3-carboxylic acid phenethyl-amide] | – | 54%
COC(=O)c1ccccc1S(=O)(=O)N1CCC2(CC1)CC(C(=O)NCC(C)C)=NO2 [Example 138, 2-(3-isobutylcarbamoyl-1-oxa-2,8-diaza-spiro[4,5]dec-2-ene-8-sulphonyl)-benzoic acid methyl ester] | – | 49%
Cc1ccc(S(=O)(=O)N2CCC3(CC2)CC(C(=O)Nc2ccc(Oc4ccccc4)cc2)=NO3)cc1 [Example 22, 8-(toluene-4-sulphonyl)-1-oxa-2,8-diaza-spiro[4,5]dec-2-ene-3-carboxylic acid (4-phenoxy-phenyl)-amide] | – | 42%
COc1ccc(S(=O)(=O)N2CCC3(CC2)CC(C(=O)NC2CCCC2OCc2ccccc2)=NO3)cc1 (centres unmarked) [Example 169, 8-(4-methoxy-benzenesulphonyl)-1-oxa-2,8-diaza-spiro[4,5]dec-2-ene-3-carboxylic acid (2-benzyloxy-cyclopentyl)-amide] | – | 64%
O=C(C1=NOC2(CCN(S(=O)(=O)c3ccc(F)cc3)CC2)C1)N1CCN(CCCc2ccccc2)CC1 [Example 186, [8-(4-fluoro-benzenesulphonyl)-1-oxa-2,8-diaza-spiro[4,5]dec-2-en-3-yl]-[4-(3-phenyl-propyl)-piperazin-1-yl]-methanone] | – | 63%
CCSc1ncccc1C(=O)N1CCC2(CC1)CC(C(=O)NCc1ccccc1)=NO2 [Example 115, 8-(2-ethylsulphanyl-pyridine-3-carbonyl)-1-oxa-2,8-diaza-spiro[4,5]dec-2-ene-3-carboxylic acid benzylamide] | – | 55%
CC(C)CNC(=O)C1=NOC2(CCN(C(=O)c3ccc(F)cc3)CC2)C1 [Example 137, 8-(4-fluoro-benzoyl)-1-oxa-2,8-diaza-spiro[4,5]dec-2-ene-3-carboxylic acid isobutyl-amide] | – | 49%
O=C(NC1CCCC1)C1=NOC2(CCN(C(=O)c3cccnc3Oc3ccccc3)CC2)C1 [Example 153, 8-(2-phenoxy-pyridine-3-carbonyl)-1-oxa-2,8-diaza-spiro[4,5]dec-2-ene-3-carboxylic acid cyclopentylamide] | – | 45%
O=C(C1=NOC2(CCN(S(=O)(=O)c3ccc(OC(F)(F)F)cc3)CC2)C1)N(CCc1ccccc1)Cc1ccccc1 [Example 97, 8-(4-trifluoromethoxy-benzenesulphonyl)-1-oxa-2,8-diaza-spiro[4,5]dec-2-ene-3-carboxylic acid benzyl-phenethyl-amide] | – | 83%
Cc1ccc(S(=O)(=O)N2CCC3(CC2)CC(C(=O)N2CCN(C(C)c4ccccc4)CC2)=NO3)cc1 (stereo not drawn) [Example 32, [4-(1-phenyl-ethyl)-piperazin-l-yl]-[8-(toluene-4-sulphonyl)-1-oxa-2,8-diaza-spiro[4,5]dec-2-en-3-yl]-methanone] | 43% | –
CC(Cc1ccc(Cl)cc1)NC(=O)C1=NOC2(CCN(S(=O)(=O)c3ccc(Cl)s3)CC2)C1 (centres unmarked) [Example 168, 8-(5-chloro-thiophene-2-sulphonyl)-1-oxa-2,8-diaza-spiro[4,5]dec-2-ene-3-carboxylic acid [2-(4-chloro-phenyl)-1-methyl-ethyl]-amide] | – | 79%
Cc1ccc(S(=O)(=O)N2CCC3(CC2)CC(C(=O)N(CCc2ccccc2)Cc2ccccc2)=NO3)cc1 [Example 18, 8-(toluene-4-sulphonyl)-1-oxa-2,8-diaza-spiro[4,5]dec-2-ene-3-carboxylic acid benzyl-phenethyl-amide] | – | 64%
CC(NC(=O)C1=NOC2(CCN(S(=O)(=O)c3cccs3)CC2)C1)c1ccccc1 (centres unmarked) [Example 8, 8-(thiophene-2-sulphonyl)-1-oxa-2,8-diaza-spiro[4,5]dec-2-ene-3-carboxylic acid (1-phenyl-ethyl)-amide] | – | 48%
O=C(NCc1cccc2ccccc12)C1=NOC2(CCN(S(=O)(=O)c3ccc(Cl)s3)CC2)C1 [Example 128, 8-(5-chloro-thiophene-2-sulphonyl)-1-oxa-2,8-diaza-spiro[4,5]dec-2-ene-3-carboxylic acid naphthalen-l-ylmethyl-amide] | 45% | –
CN(C)CCNC(=O)C1=NOC2(CCN(S(=O)(=O)c3ccccc3)CC2)C1 [Example 13, 8-benzenesulphonyl-1-oxa-2,8-diaza-spiro[4,5]dec-2-ene-3-carboxylic acid (2-dimethylamino-ethyl)-amide] | – | 43%
O=C(NCc1ccccc1)C1=NOC2(CCN(S(=O)(=O)c3cccs3)CC2)C1 [Example 136, 8-(thiophene-2-sulphonyl)-1-oxa-2,8-diaza-spiro[4,5]dec-2-ene-3-carboxylic acid benzylamide] | – | 53%
O=C(C1=NOC2(CCN(S(=O)(=O)Cc3ccccc3)CC2)C1)N1CC=C(c2ccc(F)cc2)CC1 [Example 215, [4-(4-fluoro-phenyl)-3,6-dihydro-2H-pyridin-1-yl]-(8-phenylmethanesulphonyl-1-oxa-2,8-diaza-spiro[4,5]dec-2-en-3-yl)-methanone] | – | 42%
